{
  "source": "patent US20040096498A1",
  "about": "“Oral pharmaceutical delivery system with improved sustained release” (priority 2002, published 2004)",
  "assay": "Single oral dose pharmacokinetic study in dogs, varying the testosterone dose (Example 1)",
  "assay_type": "in vivo, dogs (female beagles)",
  "details": "for Average Serum Testosterone / concentration at 0.5 h / concentration at 1 h / concentration at 2 h / concentration at 4 h / concentration at 5 h / concentration at 6 h / concentration at 8 h / concentration at 24 h: single oral; for Average Serum Testosterone: time 0 h (pre-dose); for Sustained release time, Lipid Suspension Time: time serum levels fell between about 300 and 1100 ng/dl; for concentration at 0.5 h / concentration at 1 h / concentration at 2 h / concentration at 4 h / concentration at 5 h / concentration at 6 h / concentration at 8 h / concentration at 24 h: female, beagle, dog, serum",
  "protocol": "A study using six dogs (female beagles) was made to obtain preliminary pharmacokinetic data following a single oral dose of the delivery system. The dogs were 13-24 months old, and weighed in the range of 10.4 to 13.2 kg.\nThe dosing was done in four sequential one day intervals with a minimum two day rest period in between each interval. Blood was drawn immediately before the dose was administered. […] The animals were given the placebo or test article, as described above, at approximately the same time each day, immediately prior to being fed. The dog ate its food within 30 minutes of the dose being administered.\nBlood samples were collected pre-dose and at 0.5, 1, 2, 4, 5, 6, 8 and 24 hours post dosing. At each time point, a minimum of 3 mL whole blood (or minimum volume determined by assay requirement) were collected by venipuncture of the jugular vein into non-heparinized Vacutainer tubes. The blood was centrifuged to obtain serum, which was kept on ice until placed into an appropriately sized vial, and frozen at −70° C. The samples remained frozen until delivered on dry ice to the lab for analysis. The lab used radioimmunoassay to analyse for testosterone.\nDetermining the sustained release properties of the samples in Example 1 by evaluating the amount of time the blood serum levels fell between about 300 and 1100 ng/dl, the sustained release times for Example 1 are given in Table 3. It is desirable to have release properties that are fairly constant with time. It is undesirable to have sharp peaks or drops in serum concentration of the drug.",
  "data": [
    {"smiles": "C[C@]12CC[C@H]3[C@@H](CCC4=CC(=O)CC[C@@]43C)[C@@H]1CC[C@@H]2O", "note": "[Testosterone, testosterone]", "values": [
      {"measurement": "Average Serum Testosterone", "setting": "dose 25 mg", "value": 0, "unit": "ng/dL"},
      {"measurement": "Sustained release time, Lipid Suspension Time", "setting": "dose 25 mg", "value": 1, "unit": "h"},
      {"measurement": "Average Serum Testosterone", "setting": "dose 50 mg", "value": 1, "unit": "ng/dL"},
      {"measurement": "Sustained release time, Lipid Suspension Time", "setting": "dose 50 mg", "value": 0, "unit": "h"},
      {"measurement": "Average Serum Testosterone", "setting": "dose 100 mg", "value": 0, "unit": "ng/dL"},
      {"measurement": "Sustained release time, Lipid Suspension Time", "setting": "dose 100 mg", "value": 7, "unit": "h"},
      {"measurement": "Average Serum Testosterone", "setting": "dose 250 mg", "value": 26, "unit": "ng/dL"},
      {"measurement": "Sustained release time, Lipid Suspension Time", "setting": "dose 250 mg", "value": 7, "unit": "h"},
      {"measurement": "concentration at 0.5 h", "setting": "dose 25 mg", "value": 2.86, "unit": "ng/mL"},
      {"measurement": "concentration at 1 h", "setting": "dose 25 mg", "value": 3.9, "unit": "ng/mL"},
      {"measurement": "concentration at 2 h", "setting": "dose 25 mg", "value": 4.25, "unit": "ng/mL"},
      {"measurement": "concentration at 4 h", "setting": "dose 25 mg", "value": 1.18, "unit": "ng/mL"},
      {"measurement": "concentration at 5 h", "setting": "dose 25 mg", "value": 0.35, "unit": "ng/mL"},
      {"measurement": "concentration at 6 h", "setting": "dose 25 mg", "value": 0.53, "unit": "ng/mL"},
      {"measurement": "concentration at 8 h", "setting": "dose 25 mg", "value": 0.23, "unit": "ng/mL"},
      {"measurement": "concentration at 24 h", "setting": "dose 25 mg", "value": 0.01, "unit": "ng/mL"},
      {"measurement": "concentration at 0.5 h", "setting": "dose 50 mg", "value": 1.54, "unit": "ng/mL"},
      {"measurement": "concentration at 1 h", "setting": "dose 50 mg", "value": 2.86, "unit": "ng/mL"},
      {"measurement": "concentration at 2 h", "setting": "dose 50 mg", "value": 3.76, "unit": "ng/mL"},
      {"measurement": "concentration at 4 h", "setting": "dose 50 mg", "value": 2.88, "unit": "ng/mL"},
      {"measurement": "concentration at 5 h", "setting": "dose 50 mg", "value": 2.15, "unit": "ng/mL"},
      {"measurement": "concentration at 6 h", "setting": "dose 50 mg", "value": 1.07, "unit": "ng/mL"},
      {"measurement": "concentration at 8 h", "setting": "dose 50 mg", "value": 0.54, "unit": "ng/mL"},
      {"measurement": "concentration at 24 h", "setting": "dose 50 mg", "value": 0.07, "unit": "ng/mL"},
      {"measurement": "concentration at 0.5 h", "setting": "dose 100 mg", "value": 2.7, "unit": "ng/mL"},
      {"measurement": "concentration at 1 h", "setting": "dose 100 mg", "value": 3.09, "unit": "ng/mL"},
      {"measurement": "concentration at 2 h", "setting": "dose 100 mg", "value": 4.5, "unit": "ng/mL"},
      {"measurement": "concentration at 4 h", "setting": "dose 100 mg", "value": 5.22, "unit": "ng/mL"},
      {"measurement": "concentration at 5 h", "setting": "dose 100 mg", "value": 6.18, "unit": "ng/mL"},
      {"measurement": "concentration at 6 h", "setting": "dose 100 mg", "value": 3.57, "unit": "ng/mL"},
      {"measurement": "concentration at 8 h", "setting": "dose 100 mg", "value": 4.22, "unit": "ng/mL"},
      {"measurement": "concentration at 24 h", "setting": "dose 100 mg", "value": 0.02, "unit": "ng/mL"},
      {"measurement": "concentration at 0.5 h", "setting": "dose 250 mg", "value": 2.64, "unit": "ng/mL"},
      {"measurement": "concentration at 1 h", "setting": "dose 250 mg", "value": 5.55, "unit": "ng/mL"},
      {"measurement": "concentration at 2 h", "setting": "dose 250 mg", "value": 8.35, "unit": "ng/mL"},
      {"measurement": "concentration at 4 h", "setting": "dose 250 mg", "value": 10.3, "unit": "ng/mL"},
      {"measurement": "concentration at 5 h", "setting": "dose 250 mg", "value": 8.29, "unit": "ng/mL"},
      {"measurement": "concentration at 6 h", "setting": "dose 250 mg", "value": 9.8, "unit": "ng/mL"},
      {"measurement": "concentration at 8 h", "setting": "dose 250 mg", "value": 7.57, "unit": "ng/mL"},
      {"measurement": "concentration at 24 h", "setting": "dose 250 mg", "value": 0.08, "unit": "ng/mL"}
    ]}
  ]
}
